Data as given in US7566789B2, “Benzimidazole derivatives” (Merck Patent GmbH, priority 2002, dated 2009).

What was measured:
factor Xa = factor Xa (Homo sapiens, UniProt P00742); test: Inhibition of factor Xa (FXa-IC50); format: biochemical
Excerpt: The inhibition of factor Xa by the compounds according to the invention and the measurement of the anticoagulant and antithrombotic activity can be determined by conventional in-vitro or in-vivo methods. A suitable method is described, for example, by J. Hauptmann et al. in Thrombosis and Haemostasis 1990, 63, 220-223.
The inhibition of factor Xa can be measured, for example by the method of T. Hara et al. in Thromb. Haemostas. 1994, 71, 314-319.

TF/FVIIa = TF/FVIIa (Homo sapiens, UniProt P08709); test: Inhibition of TF/factor VIIa (TF/FVIIa-IC50); format: biochemical
Excerpt: The inhibition of factor VIIa by the compounds according to the invention and the measurement of the anticoagulant and antithrombotic activity can be determined by conventional in-vitro or in-vivo methods. A conventional method for the measurement of the inhibition of factor VIIa is described, for example, by H. F. Ronning et al. in Thrombosis Research 1996, 84, 73-81.

factor Xa, sequence (P00742 235-488 limits assumed): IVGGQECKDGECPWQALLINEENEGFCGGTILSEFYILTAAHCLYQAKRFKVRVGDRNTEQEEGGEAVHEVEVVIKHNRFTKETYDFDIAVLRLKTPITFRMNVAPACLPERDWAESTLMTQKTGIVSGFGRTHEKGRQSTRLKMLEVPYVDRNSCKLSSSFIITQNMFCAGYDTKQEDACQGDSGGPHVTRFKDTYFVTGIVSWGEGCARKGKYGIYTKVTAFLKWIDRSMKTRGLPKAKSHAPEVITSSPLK
factor Xa, sequence (P00742 41-179 limits assumed): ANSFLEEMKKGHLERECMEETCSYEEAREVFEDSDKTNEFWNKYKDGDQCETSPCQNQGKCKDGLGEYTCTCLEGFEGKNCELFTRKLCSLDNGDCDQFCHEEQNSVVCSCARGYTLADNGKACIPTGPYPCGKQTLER
TF/FVIIa, sequence (P08709 213-466 limits assumed): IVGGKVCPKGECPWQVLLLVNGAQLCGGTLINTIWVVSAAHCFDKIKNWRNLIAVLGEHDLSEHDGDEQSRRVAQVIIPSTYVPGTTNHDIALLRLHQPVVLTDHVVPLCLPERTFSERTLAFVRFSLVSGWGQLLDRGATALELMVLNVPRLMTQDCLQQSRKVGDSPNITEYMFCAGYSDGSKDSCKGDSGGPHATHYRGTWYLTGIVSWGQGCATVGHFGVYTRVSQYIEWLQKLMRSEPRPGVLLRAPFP
TF/FVIIa, sequence (P08709 61-212 limits assumed): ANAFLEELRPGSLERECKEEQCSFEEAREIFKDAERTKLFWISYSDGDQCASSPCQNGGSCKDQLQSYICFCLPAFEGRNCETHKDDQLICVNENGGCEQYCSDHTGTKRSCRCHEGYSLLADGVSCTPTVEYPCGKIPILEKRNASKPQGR
TF/FVIIa, sequence (P13726 33-295 partner): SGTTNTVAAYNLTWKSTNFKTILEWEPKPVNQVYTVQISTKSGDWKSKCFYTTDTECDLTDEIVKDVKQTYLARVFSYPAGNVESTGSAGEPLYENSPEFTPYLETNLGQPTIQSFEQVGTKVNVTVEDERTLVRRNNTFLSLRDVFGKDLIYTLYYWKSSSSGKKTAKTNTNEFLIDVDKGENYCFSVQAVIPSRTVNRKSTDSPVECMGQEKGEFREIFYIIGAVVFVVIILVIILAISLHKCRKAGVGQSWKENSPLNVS

In the case of `O=C(Cc1ccc2[nH]c(-c3ccc(Cl)s3)nc2c1)Nc1ccc(N2CCOCC2=O)cc1` [AA, 2-[2-(5-chlorothiophen-2-yl)-1H-benzimidazol-5-yl]-N-[4-(3-oxomorpholin-4-yl)phenyl]acetamide], the IC50 (factor Xa) is reported as 230 nM, the IC50 (TF/FVIIa) is reported as 190 nM and the melting point is reported as 200 °C (dec.).
For `Cc1cc(NC(=O)Cc2ccc3[nH]c(-c4ccc(Cl)s4)nc3c2)ccc1N1CCOCC1=O` [AB, 2-[2-(5-chlorothiophen-2-yl)-1H-benzimidazol-5-yl]-N-[3-methyl-4-(3-oxomorpholin-4-yl)phenyl]acetamide], the IC50 (factor Xa) was 120 nM and the IC50 (TF/FVIIa) was 130 nM.
Work on `O=C(Cc1ccc2[nH]c(-c3ccc(Cl)s3)nc2c1)Nc1ccc(-n2ccccc2=O)cc1` [AC, 2-[2-(5-chlorothiophen-2-yl)-1H-benzimidazol-5-yl]-N-[4-(2-oxopyridin-1-yl)phenyl]acetamide] yielded an IC50 (factor Xa) of 180 nM and an IC50 (TF/FVIIa) of 130 nM.
